Marks after values point to notes of the source that are not given here.

Usually IC50 stands for the midpoint of a concentration-inhibition curve.

Test [1] relates to guinea pig model of osteoarthritis induced by MIA (monosodium iodoacetate). Briefly: Hind limb incapacitance test in guinea pig model of osteoarthritis induced by MIA. In kind it is in vivo. Particulars: for Weight-bearing ratio: GRC27864 12.5 mg/kg oral. Here is the method:
An experiment was conducted as follows in order to evaluate the efficacy of the compound according to the present invention for osteoarthritis-induced guinea pigs.
(§1) Specifically, male guinea pigs weighing about 500 g±20% from Coretech Co., Ltd. (Gyeonggi-do, Korea) were acclimated in a laboratory for 8 days, and provided chow and water ad libitum. Temperature (23±3° C.), humidity (55±15%) and light/dark cycle (12 hours, 08:00˜20:00) were controlled automatically.
(§2) Each group consisted of 10 guinea pigs. Guinea pigs were anesthetized with Zoletil 50 (VIRBAC, France, 5 mg/kg) and xylazine (Rompun®, Bayer AG, Germany, 2.5 mg/kg) and depilated at the area around the right knee with Clipper. Using a C-arm (ARCADIS Varic, SIEMENS Co.), it was confirmed that a syringe equipped with a 26 gauge needle was located in the joint cavity. 50 μL of MIA at a concentration of 60 mg/mL was administered into the joint cavity. One week after MIA administration, Compound 9 of the present invention was added to excipients (DMSO (10% by weight), Tween 80 (30% by weight), HMPC (same amount as the drug)), dissolved in water so that the total amount was 100% by weight, and orally administered to the prepared experimental animals at 10 mg/kg and 25 mg/kg, respectively. In the positive control group, GRC27864 was orally administered at 12.5 mg/kg using the same excipient, and only the excipient was orally administered to the control group. The drug was administered for 4 weeks.
(§3) The hind limb incapacitance test was performed for the behavioral evaluation weekly for 4 weeks and the inflammatory factor evaluation was performed by measuring PGE2, IL-1β, and TNF-α in blood after 4 weeks.
The hind limb weight-bearing ratios were obtained by setting up the animals at an inclination of 60 degrees in a plastic room using an incapacitance meter tester, measuring the intensity applied to each hind limb over 10 seconds, and calculating an average. Weight-bearing ratios are 50% for normal cases and up to early 30% for the cases in which a disease is induced.

In test [2] the test system is PGE2, IL-1β, and TNF-α in blood. Briefly: Inflammatory factor evaluation (ELISA) in blood of MIA osteoarthritis guinea pigs. Particulars: blood, after 4 weeks, 12.5 mpk oral. In kind it is in vivo, guinea pig. Here is the method:
as §1, §2, §3
The concentrations of PGE2, IL-1β, and TNF-α in blood were measured using commercially available ELISA kit after 4 weeks. The results are shown in Table 4 below and FIGS. 2 to 4. ***, ** and * represent statistical significance compared to the control group, and are P<0.001, P<0.01, and P<0.05 compared to the control group.
Background: In an ELISA, binding on a coated surface is turned into a signal by an enzyme label.

For test [3], the system named is A549 human lung cancer cells. Briefly: Measurement of PGE2 in IL-1β-treated A549 human lung cancer cells. In kind it is cell-based. Conditions: PGE2 production, A549 cell, IL-1β 1 ng/mL, 48 hours. Here is the method: Samples at various concentrations were added at 24 hours after A549 human lung cancer cells were seeded. After 1 hour, IL-1β of 1 ng/mL was added. The cells were cultured for 48 hours and then the culture supernatant was collected. PGE2 of the collected supernatant was measured according to the manufacturer's instructions using a PGE2 EIA kit.

With `CC(C)C(=O)NCc1ccc(Cl)c(-c2nc3cc(-c4ccc(C(F)(F)F)cc4)ncc3c(=O)[nH]2)c1` [GRC27864, reference compound], the Weight-bearing ratio was 40.84 ± 2.68% in test [1] (day 0); 43.66 ± 4.51% in test [1] (day 7); 39.85 ± 3.29% in test [1] (day 14); 37.35 ± 4.43% in test [1] (day 21); 40.92 ± 3.85% in test [1] (day 28). Further, the “weight-bearing ratios, course in words” value in test [1] (over 4 weeks of oral administration after MIA) is “did not worsen after MIA administration but were maintained”. Moreover, the “IL-1β (ELISA analysis)” value in test [2] turned out to be 37.408 ± 9.109. The “PGE2 (ELISA analysis)” value in test [2] was 7756.9 ± 1860.5**. Besides, in test [2], the “TNF-α (ELISA analysis)” value is 97.110 ± 20.595*. In test [3], this compound yielded an IC50 of 3.21 nM. As for `CC(C)C(=O)NCc1ccc(Cl)c(C(=O)Nc2ccc3c(c2)cc(C(=O)N[C@@H](C)c2ccc(OC(F)(F)F)cc2)n3C)c1` [Compound 61, (S)-5-(2-chloro-5-(isobutyramidomethyl)benzamido)-1-methyl-N-(1-(4-(trifluoromethoxy)phenyl)ethyl)-1H-indole-2-carboxamide], inhibition in test [3] was half-maximal at 51.6 nM (IC50). As for `CC(C)C(=O)NCc1ccc(Cl)c(C(=O)Nc2ccc3c(c2)cc(C(=O)NCc2ccccc2C(F)(F)F)n3C)c1` [Compound 35, 5-(2-chloro-5-(isobutyramidomethyl)benzamido)-1-methyl-N-(2-(trifluoromethyl)benzyl)-1H-indole-2-carboxamide], the IC50 in test [3] was determined as 10.4 nM. Consider `CC(C)C(=O)NCc1ccc(Cl)c(CNc2ccc3c(c2)cc(C(=O)Nc2ccc(OC(F)(F)F)cc2)n3C)c1` [Compound 73, 5-((2-chloro-5-(isobutyramidomethyl)benzyl)amino)-1-methyl-N-(4-(trifluoromethoxy)phenyl)-1H-indole-2-carboxamide], for which, in test [3], half-maximal inhibition (IC50) was put at 72.3 nM.

`CC(C)C(=O)NCc1ccc(Cl)c(C(=O)Nc2ccc3c(c2)cc(C(=O)N[C@@H](C)c2ccc(Br)cc2)n3CC(F)(F)F)c1` [Compound 67, (S)—N-(1-(4-bromophenyl)ethyl)-5-(2-chloro-5-(isobutyramidomethyl)benzamido)-1-(2,2,2-trifluoroethyl)-1H-indole-2-carboxamide] gave an IC50 in test [3] of 1.8 nM. As to `CC(C)C(=O)NCc1ccc(Cl)c(C(=O)Nc2ccc3c(c2)cc(C(=O)NCc2ccc(F)c(Cl)c2)n3C)c1` [Compound 56, N-(3-chloro-4-fluorobenzyl)-5-(2-chloro-5-(isobutyramidomethyl)benzamido)-1-methyl-1H-indole-2-carboxamide], the IC50 in test [3] turned out to be 59.2 nM.

The compound `CC(C)C(=O)NCc1ccc(Cl)c(C(=O)Nc2ccc3c(c2)cc(C(=O)N[C@@H](C)c2ccc4ccccc4c2)n3C)c1` [Compound 31, (S)-5-(2-chloro-5-(isobutyramidomethyl)benzamido)-1-methyl-N-(1-(naphthalen-2-yl)ethyl)-1H-indole-2-carboxamide] returned an IC50 in test [3] of 9.22 nM. The compound `CC(C)C(=O)NCc1ccc(Cl)c(C(=O)Nc2ccc3c(c2)cc(C(=O)N[C@@H](C)c2ccc([N+](=O)[O-])cc2)n3CC(F)(F)F)c1` [Compound 66, (S)-5-(2-chloro-5-(isobutyramidomethyl)benzamido)-N-(1-(4-nitrophenyl)ethyl)-1-(2,2,2-trifluoroethyl)-1H-indole-2-carboxamide] showed an IC50 in test [3] of 43.3 nM. In turn, `Cc1c(-c2ccc(C(F)(F)F)cc2)n[nH]c1NC(=O)c1cc2cc(NC(=O)c3cc(CNC(=O)C(C)C)ccc3Cl)ccc2n1C` [Compound 20, 5-(2-chloro-5-(isobutyramidomethyl)benzamido)-1-methyl-N-(4-methyl-3-(4-(trifluoromethyl)phenyl)-1H-pyrazol-5-yl)-1H-indole-2-carboxamide] yielded an IC50 in test [3] of 6.87 nM. In turn, `CC(C)C(=O)NCc1ccc(Cl)c(C(=O)Nc2ccc3[nH]c(C(=O)Nc4ccc(OC(F)(F)F)cc4)cc3c2)c1` [Compound 74, 5-(2-chloro-5-(isobutyramidomethyl)benzamido)-N-(4-(trifluoromethoxy)phenyl)-1H-indole-2-carboxamide] registered an IC50 in test [3] of 5.87 nM. `CC(C)C(=O)NCc1ccc(Cl)c(C(=O)Nc2ccc3c(c2)cc(C(=O)NCc2ccc(Cl)c(F)c2)n3CC(F)(F)F)c1` [Compound 71, N-(4-chloro-3-fluorobenzyl)-5-(2-chloro-5-(isobutyramidomethyl)benzamido)-1-(2,2,2-trifluoroethyl)-1H-indole-2-carboxamide] gave an IC50 in test [3] of 20.1 nM. On the same count and under the same terms, in the case of `CC(C)C(=O)NCc1ccc(Cl)c(C(=O)Nc2ccc3c(c2)cc(C(=O)Nc2cccc(-c4ccc(C(F)(F)F)cc4)c2)n3C)c1` [Compound 16, 5-(2-chloro-5-(isobutyramidomethyl)benzamido)-1-methyl-N-(4′-(trifluoromethyl)-[1,1′-biphenyl]-3-yl)-1H-indole-2-carboxamide] it was 7.19 nM; in that of `CC(C)C(=O)NCc1ccc(Cl)c(C(=O)Nc2ccc3c(c2)cc(C(=O)N[C@H](C)c2ccc(C(F)(F)F)cc2)n3C)c1` [Compound 58, (R)-5-(2-chloro-5-(isobutyramidomethyl)benzamido)-1-methyl-N-(1-(4-(trifluoromethyl)phenyl)ethyl)-1H-indole-2-carboxamide], 5.54 nM.

Compound `CC(C)C(=O)NCc1ccc(Cl)c(C(=O)Nc2ccc3c(c2)cc(C(=O)Nc2cc(-c4ccc(C(F)(F)F)cc4)n[nH]2)n3C)c1` [Compound 19, 5-(2-chloro-5-(isobutyramidomethyl)benzamido)-1-methyl-N-(3-(4-(trifluoromethyl)phenyl)-1H-pyrazole-5-yl)-1H-indole-2-carboxamide] came in with a concentration for half-maximal inhibition (IC50) in test [3] of over 100 nM. In test [3], `CC(C)C(=O)NCc1ccc(Cl)c(C(=O)Nc2ccc3c(c2)cc(C(=O)NCc2cc(F)cc(C(F)(F)F)c2)n3CC(F)(F)F)c1` [Compound 69, 5-(2-chloro-5-(isobutyramidomethyl)benzamido)-N-(3-fluoro-5-(trifluoromethyl)benzyl)-1-(2,2,2-trifluoroethyl)-1H-indole-2-carboxamide] gave an IC50 of 47 nM. The compound `CC(C)C(=O)NCc1ccc(Cl)c(C(=O)Nc2ccc3c(c2)cc(C(=O)N[C@@H](C)c2ccc4ccccc4c2)n3CC(F)(F)F)c1` [Compound 65, (S)-5-(2-chloro-5-(isobutyramidomethyl)benzamido)-N-(1-(naphthalen-2-yl)ethyl)-1-(2,2,2-trifluoroethyl)-1H-indole-2-carboxamide] returned an IC50 in test [3] of 2.71 nM.

`CC(C)C(=O)NCc1ccc(Cl)c(C(=O)Nc2ccc3c(c2)cc(C(=O)Nc2ccc(Br)cc2)n3C)c1` [Compound 13, N-(4-bromophenyl)-5-(2-chloro-5-(isobutyramidomethyl)benzamido)-1-methyl-1H-indole-2-carboxamide] yielded an IC50 in test [3] of 26.4 nM. With `CC(C)C(=O)NCc1ccc(Cl)c(C(=O)Nc2ccc3c(c2)cc(C(=O)NCc2ccc(C(F)(F)F)cc2)n3CC(F)(F)F)c1` [Compound 64, 5-(2-chloro-5-(isobutyramidomethyl)benzamido)-1-(2,2,2-trifluoroethyl)-N-(4-(trifluoromethyl)benzyl)-1H-indole-2-carboxamide], the IC50 in test [3] is 9.38 nM. For `CC(C)C(=O)NCc1ccc(Cl)c(C(=O)Nc2ccc3c(c2)cc(C(=O)Nc2cccc(Cl)c2)n3C)c1` [Compound 3, 5-(2-chloro-5-(isobutyramidomethyl)benzamido)-N-(3-chlorophenyl)-1-methyl-1H-indole-2-carboxamide], the IC50 in test [3] is 209 nM.

The values are drawn from patent US12465588B2, “Indole carboxamide derivative and pharmaceutical composition containing same” (KUKJE PHARMA CO., LTD., priority 2019, dated 2025).
